From PMC11859184, “Synthesis and Evaluation of ^68Ga- and ^177Lu-Labeled [diF-Pro^14]Bombesin(6−14) Analogs for Detection and Radioligand Therapy of Gastrin-Releasing Peptide Receptor-Expressing Cancer” (Pharmaceuticals, 2025)
Like-named read-outs stand apart in the source and are kept apart here.

Assay: Ex vivo biodistribution of 177Lu-labeled ligands in PC-3 tumor-bearing mice
Conditions: mouse; for tissue to tissue ratio at 1 h / tissue uptake at 1 h: 1 h pi; for tissue to tissue ratio at 4 h / tissue uptake at 4 h: 4 h pi; for tissue to tissue ratio at 24 h / tissue uptake at 24 h: 24 h pi; for tissue to tissue ratio at 120 h / tissue uptake at 120 h: 120 h pi; for tissue uptake at 1 h / tissue uptake at 4 h / tissue uptake at 24 h / tissue uptake at 72 h / tissue uptake at 120 h: intravenous
Method: SPECT/CT imaging was conducted using an MI Labs (Houten, The Netherlands) U-SPECT-II/CT scanner with a custom-made ultra-high sensitivity big mouse collimator (2 mm pinhole size) following published procedure. The experiments were obtained in accordance with the same protocol established in the PET/CT imaging and ex vivo biodistributions section. The mice were used for SPECT/CT imaging and ex vivo biodistributions studies once the tumors reached a diameter of 5–8 mm. PC-3 tumor-bearing mice were sedated (2.5% isoflurane in O2) and injected with 31.4–36.9 MBq of the ^177Lu-labeled ligand through a lateral caudal tail vein. The mouse was imaged at 1, 4, 24, 72, and 120 h pi. At each time point, a 5 min CT scan was performed with 615 μA and 60 kV parameters for localization and attenuation, followed by two 30 min static SPECT scans in list mode with an energy window centered around 208 keV. The U-SPECT II software was used to reconstruct data, and the images were decay corrected to the time of injection with PMOD v 3.402 (PMOD Technologies GmbH, Fallanden, Switzerland).
For ex vivo biodistribution studies, the mice were injected with ~3–5 MBq of the ^177Lu-labeled ligand (n = 5). At 1, 4, 24, 72, and 120 h post-injection, the mice were anesthetized with 2% isoflurane, euthanized by CO2 inhalation, and the tissues/organs of interest were […] for radioactivity counting. The blocking study was performed at 1 h pi via co-injection of the ^177Lu-labeled ligand with 100 μg of [D-Phe^6,Leu-NHEt^13,des-Met^14]Bombesin(6–14).

[1] = male, NOD.Cg-Rag1^tm1Mom Il2rg^tm1Wjl/SzJ (NRG), tumor/blood, iv, total radioactivity, n = 5, read-out: Tumor/blood uptake ratio
[2] = male, NOD.Cg-Rag1^tm1Mom Il2rg^tm1Wjl/SzJ (NRG), tumor/kidney, iv, total radioactivity, n = 5, read-out: Tumor/kidney uptake ratio
[3] = male, NOD.Cg-Rag1^tm1Mom Il2rg^tm1Wjl/SzJ (NRG), tumor/muscle, iv, total radioactivity, n = 5, read-out: Tumor/muscle uptake ratio
[4] = male, NOD.Cg-Rag1^tm1Mom Il2rg^tm1Wjl/SzJ (NRG), tumor/pancreas, iv, total radioactivity, n = 5, read-out: Tumor/pancreas uptake ratio
[5] = PC-3 tumor, n = 5, read-out: PC-3 tumor uptake
[6] = adrenal glands, n = 5, read-out: Adrenal glands uptake
[7] = blood, n = 5, read-out: Blood uptake
[8] = bone, n = 5, read-out: Bone uptake
[9] = brain, n = 5, read-out: Brain uptake
[10] = fat, n = 5, read-out: Fat uptake
[11] = heart, n = 5, read-out: Heart uptake

A tissue uptake (male, NOD.Cg-Rag1^tm1Mom Il2rg^tm1Wjl/SzJ (NRG), iv, total radioactivity, all time points, read-out: uptake in all other collected organs/tissues (other than tumor, pancreas, kidney)) of under 1 %ID/g, a tissue to tissue ratio at 1 h (male, NOD.Cg-Rag1^tm1Mom Il2rg^tm1Wjl/SzJ (NRG), tumor/blood, iv, total radioactivity, blocked (100 µg GRPR antagonist co-injected), read-out: Tumor/blood uptake ratio) of 6.37 ± 1.92 and a tissue to tissue ratio at 1 h [1] of 16.1 ± 2.2 were found for `CC(C)C[C@H](NC(=O)[C@H](Cc1cnc[nH]1)N(C)C(=O)CNC(=O)[C@@H](NC(=O)[C@H](C)NC(=O)[C@H](Cc1c[nH]c2ccccc12)NC(=O)[C@H](CCC(N)=O)NC(=O)[C@@H](Cc1ccccc1)NC(=O)CN1CCC(NC(=O)CN2CCN(CC(=O)O)CCN(CC(=O)O)CCN(CC(=O)O)CC2)CC1)C(C)(C)C)C(=O)N1CC(F)(F)C[C@H]1C(N)=O` [[^177Lu]Lu-LW02060, metal not drawn] in this work. For the same compound, the tissue to tissue ratio at 4 h [1] was 144 ± 33.5, the tissue to tissue ratio at 24 h [1] was 813 ± 203 and the tissue to tissue ratio at 72 h (male, NOD.Cg-Rag1^tm1Mom Il2rg^tm1Wjl/SzJ (NRG), tumor/blood, iv, total radioactivity, 72 h pi, n = 5, read-out: Tumor/blood uptake ratio) was 1120 ± 440. The tissue to tissue ratio at 120 h [1] was 1630 ± 548, the tissue to tissue ratio at 1 h (male, NOD.Cg-Rag1^tm1Mom Il2rg^tm1Wjl/SzJ (NRG), tumor/kidney, iv, total radioactivity, blocked (100 µg GRPR antagonist co-injected), read-out: Tumor/kidney uptake ratio) was 0.89 ± 0.22 and the tissue to tissue ratio at 1 h [2] was 2.65 ± 0.64. The tissue to tissue ratio at 4 h [2] was 2.96 ± 0.3, the tissue to tissue ratio at 24 h [2] was 5.67 ± 1.43 and the tissue to tissue ratio at 72 h (male, NOD.Cg-Rag1^tm1Mom Il2rg^tm1Wjl/SzJ (NRG), tumor/kidney, iv, total radioactivity, 72 h pi, n = 5, read-out: Tumor/kidney uptake ratio) was 8.43 ± 2.89. It also gave a tissue to tissue ratio at 120 h [2] of 14.1 ± 4.53, a tissue to tissue ratio at 1 h (male, NOD.Cg-Rag1^tm1Mom Il2rg^tm1Wjl/SzJ (NRG), tumor/muscle, iv, total radioactivity, blocked (100 µg GRPR antagonist co-injected), read-out: Tumor/muscle uptake ratio) of 23.2 ± 5.2 and a tissue to tissue ratio at 1 h [3] of 78.3 ± 13. The tissue to tissue ratio at 4 h [3] was 196 ± 53.1, the tissue to tissue ratio at 24 h [3] was 520 ± 113 and the tissue to tissue ratio at 72 h (male, NOD.Cg-Rag1^tm1Mom Il2rg^tm1Wjl/SzJ (NRG), tumor/muscle, iv, total radioactivity, 72 h pi, n = 5, read-out: Tumor/muscle uptake ratio) was 522 ± 189. The tissue to tissue ratio at 120 h [3] was 744 ± 179, the tissue to tissue ratio at 1 h (male, NOD.Cg-Rag1^tm1Mom Il2rg^tm1Wjl/SzJ (NRG), tumor/pancreas, iv, total radioactivity, blocked (100 µg GRPR antagonist co-injected), read-out: Tumor/pancreas uptake ratio) was 6.72 ± 2.24 and the tissue to tissue ratio at 1 h [4] was 3.57 ± 0.42. For the same compound, the tissue to tissue ratio at 4 h [4] was 4.91 ± 0.14, the tissue to tissue ratio at 24 h [4] was 5.7 ± 0.81 and the tissue to tissue ratio at 72 h (male, NOD.Cg-Rag1^tm1Mom Il2rg^tm1Wjl/SzJ (NRG), tumor/pancreas, iv, total radioactivity, 72 h pi, n = 5, read-out: Tumor/pancreas uptake ratio) was 8.37 ± 3.35. The tissue to tissue ratio at 120 h [4] was 17.1 ± 2.1, the tissue uptake at 1 h (PC-3 tumor, 100 ug, blocked (100 µg GRPR antagonist co-injected), read-out: PC-3 tumor uptake) was 3.25 ± 0.44 %ID/g and the tissue uptake at 1 h [5] was 9.59 ± 3.37 %ID/g. The tissue uptake at 4 h [5] was 8.38 ± 0.19 %ID/g, the tissue uptake at 24 h [5] was 5.78 ± 0.4 %ID/g and the tissue uptake at 72 h (PC-3 tumor, 72 h pi, n = 5, read-out: PC-3 tumor uptake) was 2.74 ± 0.85 %ID/g. For the same compound, the tissue uptake at 120 h [5] was 2.19 ± 0.59 %ID/g, the tissue uptake at 72 h (PC-3 tumor, after 72 h pi, read-out: tumor uptake) was under 3 %ID/g and the tissue uptake at 1 h (adrenal glands, 100 ug, blocked (100 µg GRPR antagonist co-injected), read-out: Adrenal glands uptake) was 0.27 ± 0.06 %ID/g. The tissue uptake at 1 h [6] was 0.46 ± 0.15 %ID/g, the tissue uptake at 4 h [6] was 0.33 ± 0.15 %ID/g and the tissue uptake at 24 h [6] was 0.36 ± 0.3 %ID/g. The tissue uptake at 72 h (adrenal glands, 72 h pi, n = 5, read-out: Adrenal glands uptake) was 0.13 ± 0.07 %ID/g, the tissue uptake at 120 h [6] was 0.1 ± 0.02 %ID/g and the tissue uptake at 1 h (blood, 100 ug, blocked (100 µg GRPR antagonist co-injected), read-out: Blood uptake) was 0.43 ± 0.23 %ID/g. For the same compound, the tissue uptake at 1 h [7] was 0.59 ± 0.18 %ID/g, the tissue uptake at 4 h [7] was 0.06 ± 0.02 %ID/g and the tissue uptake at 24 h [7] was 0.01 %ID/g. The tissue uptake at 1 h (bone, 100 ug, blocked (100 µg GRPR antagonist co-injected), read-out: Bone uptake) was 0.12 ± 0.04 %ID/g, the tissue uptake at 1 h [8] was 0.23 ± 0.06 %ID/g and the tissue uptake at 4 h [8] was 0.1 ± 0.08 %ID/g. It also gave a tissue uptake at 24 h [8] of 0.02 ± 0.01 %ID/g, a tissue uptake at 72 h (bone, 72 h pi, n = 5, read-out: Bone uptake) of 0.02 %ID/g and a tissue uptake at 120 h [8] of 0.02 %ID/g. The tissue uptake at 1 h (brain, 100 ug, blocked (100 µg GRPR antagonist co-injected), read-out: Brain uptake) was 0.02 ± 0.01 %ID/g, the tissue uptake at 1 h [9] was 0.02 ± 0.01 %ID/g and the tissue uptake at 4 h [9] was 0.01 %ID/g. For the same compound, the tissue uptake at 1 h (fat, 100 ug, blocked (100 µg GRPR antagonist co-injected), read-out: Fat uptake) was 0.06 ± 0.03 %ID/g, the tissue uptake at 1 h [10] was 0.08 ± 0.02 %ID/g and the tissue uptake at 4 h [10] was 0.02 ± 0.01 %ID/g. For the same compound, the tissue uptake at 24 h [10] was 0.01 %ID/g, the tissue uptake at 120 h [10] was 0.01 ± 0.01 %ID/g and the tissue uptake at 1 h (heart, 100 ug, blocked (100 µg GRPR antagonist co-injected), read-out: Heart uptake) was 0.13 ± 0.05 %ID/g. The tissue uptake at 1 h [11] was 0.19 ± 0.05 %ID/g, the tissue uptake at 4 h [11] was 0.06 ± 0.02 %ID/g and the tissue uptake at 24 h [11] was 0.02 %ID/g.
